One may read the IC90 as the concentration needed for an effect of 90%.

Counter-ions that a name gives are not always drawn.

The first experiment relates to Acinetobacter baumannii ATCC17961. Nature of the experiment: Antimicrobial susceptibility testing: 90% growth inhibitory concentration (IC90) determination in Iso-Sensitest broth, OD600 growth. Type of experiment: cell-based. As to conditions: Acinetobacter baumannii, ATCC17961, 16 h, read-out: A. baumannii ATCC 17961 IC90 (uM), strain ATCC 17961, OD600 growth over 16 h. As to the method: Antimicrobial Susceptibility Testing:
90% Growth Inhibitory Concentration (IC90) Determination
The in vitro antimicrobial activity of the compounds was determined according to the following procedure:
The assay used a 10-points Iso-Sensitest broth medium to measure quantitatively the in vitro activity of the compounds against Acinetobacter baumannii ATCC17961 or ATCC17968.
Stock compounds in DMSO were serially twofold diluted (e.g. range from 50 to 0.097 μM final concentration) in 384 wells microtiter plates and inoculated with 49 μl the bacterial suspension in Iso-Sensitest medium to have a final cell concentration of ˜5×10^(5) CFU/ml in a final volume/well of 50 ul/well. Microtiter plates were incubated at 35±2° C.
Bacterial cell growth was determined with the measurement of optical density at λ=600 nm each 20 minutes over a time course of 16 h. Growth inhibition was calculated during the logarithmic growth of the bacterial cells with determination of the concentration inhibiting 50% (IC50) and 90% (IC90) of the growth.
Table 7 provides the 90% growth inhibitory concentrations (IC90) in micromoles per liter of the compounds of present invention obtained against the strain Acinetobacter baumannii ATCC17961 and/or ATCC17968.
For the compound `O=C(c1ccc(Nc2nccn3c(-c4c[nH]nc4C(F)(F)F)cnc23)cc1Cl)N1CCN(C(=O)C2CCNCC2)CC1` [Example 401, [2-chloro-4-[[3-[3-(trifluoromethyl)-1H-pyrazol-4-yl]imidazo[1,2-a]pyrazin-8-yl]amino]phenyl]-[4-(piperidine-4-carbonyl)piperazin-1-yl]methanone formate], the IC90 stood at 0.273 µM. Take `CCc1cc(Nc2nccn3c(-c4c[nH]nc4C(F)(F)F)cnc23)ccc1C(=O)NCCCNC(=O)[C@@H]1CC[C@H](N)C1` [Example 534, N-(3-((1R,3S)-3-aminocyclopentane-1-carboxamido)propyl)-2-ethyl-4-((3-(3-(trifluoromethyl)-1H-pyrazol-4-yl)imidazo[1,2-a]pyrazin-8-yl)amino)benzamide formate]: the IC90 is 0.251 µM.

With `Cc1ccc(Cn2cc(-c3cnc4c(Nc5ccc(C(=O)N6CCNCC6)c(Cl)c5)nccn34)c(C(F)(F)F)n2)nn1` [Example 163, [2-chloro-4-[[3-[1-[(6-methylpyridazin-3-yl)methyl]-3-(trifluoromethyl)pyrazol-4-yl]imidazo[1,2-a]pyrazin-8-yl]amino]phenyl]-piperazin-1-ylmethanone formate], the IC90 was 1.27 µM.

With `CCc1cc(Nc2nccn3c(-c4c[nH]nc4C(F)(F)F)cnc23)ccc1C(=O)NCCNC(=O)CN` [Example 691, N-(2-(2-aminoacetamido)ethyl)-2-ethyl-4-((3-(3-(trifluoromethyl)-1H-pyrazol-4-yl)imidazo [1,2-a]pyrazin-8-yl)amino)benzamide formate], the IC90 is 0.352 µM. Turning to `N[C@H]1C[C@H]1C(=O)N1CCN(C(=O)c2ccc(Nc3nccn4c(-c5c[nH]nc5C(F)(F)F)cnc34)cc2Cl)CC1` [Example 225, [4-[(1R,2S)-2-aminocyclopropanecarbonyl]piperazin-1-yl]-[2-chloro-4-[[3-[3-(trifluoromethyl)-1H-pyrazol-4-yl]imidazo[1,2-a]pyrazin-8-yl]amino]phenyl] methanone formate], the concentration for an effect of 90% (IC90) turned out to be 1.81 µM. Consider `CCc1cc(Nc2nccn3c(-c4c[nH]nc4C(F)(F)F)cnc23)ccc1C(=O)NCC1CNC1` [Example 513, N-(azetidin-3-ylmethyl)-2-ethyl-4-((3-(3-(trifluoromethyl)-1H-pyrazol-4-yl)imidazo[1,2-a]pyrazin-8-yl)amino)benzamide formate], for which the IC90 is 0.15 µM. Same read-out and setting: under `CCc1cc(Nc2nccn3c(-c4cn(CC(C)(CO)CCl)nc4C(F)(F)F)cnc23)ccc1C(=O)NCCOCCN` (centres unmarked) [Example 279, N-[2-(2-aminoethoxy)ethyl]-4-[[3-[1-[2-(chloromethyl)-3-hydroxy-2-methylpropyl]-3-(trifluoromethyl)pyrazol-4-yl]imidazo[1,2-a]pyrazin-8-yl]amino]-2-ethylbenzamide formate] stands 0.664 µM. The same measure, in the same setting: under `O=C(c1ccc(Nc2nccn3c(-c4c[nH]nc4C(F)(F)F)cnc23)cc1Cl)N1CCN(C(=O)[C@@H]2CCNC[C@@H]2O)CC1` [Example 450, [2-chloro-4-[[3-[3-(trifluoromethyl)-1H-pyrazol-4-yl]imidazo[1,2-a]pyrazin-8-yl]amino]phenyl]-[4-[(3R,4R)-3-hydroxypiperidine-4-carbonyl]piperazin-1-yl]methanone formate] stands 0.306 µM. Same read-out and setting: under `Cc1cc(Nc2nccn3c(-c4cn(C)nc4C(F)(F)F)cnc23)ccc1C(=O)N1CCN(C(=O)N[C@@H]2CNC[C@H]2O)CC1` [Example 469, formic acid; N-[(3R,4R)-4-hydroxypyrrolidin-3-yl]-4-[2-methyl-4-[[3-[1-methyl-3-(trifluoromethyl)pyrazol-4-yl]imidazo[1,2-a]pyrazin-8-yl]amino]benzoyl]piperazine-1-carboxamide] stands 0.705 µM; under `C[C@@H](NC(=O)c1ccc(Nc2nccn3c(-c4c[nH]nc4C(F)(F)F)cnc23)cc1Cl)C(=O)N[C@H]1CCNC1` [Example 96, 2-chloro-N-[(2R)-1-oxo-1-[[(3S)-pyrrolidin-3-yl]amino]propan-2-yl]-4-[[3-[3-(trifluoromethyl)-1H-pyrazol-4-yl]imidazo[1,2-a]pyrazin-8-yl]amino]benzamide formate], 1.63 µM. For `Cc1cc(Nc2nccn3c(-c4c[nH]nc4C(F)(F)F)cnc23)ccc1C(=O)N1CCN(C(=O)[C@H]2CCNC[C@@H]2O)CC1` [Example 465, formic acid; [4-[(3R,4S)-3-hydroxypiperidine-4-carbonyl]piperazin-1-yl]-[2-methyl-4-[[3-[3-(trifluoromethyl)-1H-pyrazol-4-yl]imidazo[1,2-a]pyrazin-8-yl]amino]phenyl]methanone], the IC90 worked out at 1.62 µM.

The same experiment, now with this note: Acinetobacter baumannii, ATCC17961, 16 h, strain ATCC 17961, OD600 growth over 16 h, read-out: A. baumannii ATCC 17961 IC90.
Regarding `CCc1cc(Nc2nccn3c(-c4cn(C(C)C#N)nc4C(F)(F)F)cnc23)ccc1C(=O)NCCOCCN1CCOCC1` (centres unmarked) [Example 745, 4-((3-(1-(1-cyanoethyl)-3-(trifluoromethyl)-1H-pyrazol-4-yl)imidazo[1,2-a]pyrazin-8-yl)amino)-2-ethyl-N-(2-(2-morpholinoethoxy)ethyl) benzamide formate], the IC90 amounted to 0.569 µM. Take `N#CCn1cc(-c2cnc3c(Nc4ccc(C(=O)N5CCN(C(=O)[C@@H]6CCNC6)CC5)c(Cl)c4)nccn23)c(C(F)(F)F)n1` [Example 191, 2-[4-[8-[3-chloro-4-[4-[(3R)-pyrrolidine-3-carbonyl]piperazine-1-carbonyl]anilino]imidazo[1,2-a]pyrazin-3-yl]-3-(trifluoromethyl)pyrazol-1-yl]acetonitrile]: the IC90 was 0.276 µM. Take `Cc1cc(Nc2nccn3c(-c4cn(CC(F)F)nc4C(F)(F)F)cnc23)cc(F)c1C(=O)NCCCCCCN` [Example 615, N-(6-aminohexyl)-4-((3-(1-(2,2-difluoroethyl)-3-(trifluoromethyl)-1H-pyrazol-4-yl)imidazo[1,2-a]pyrazin-8-yl)amino)-2-fluoro-6-methylbenzamide]: the IC90 is 0.122 µM. With `CCc1cc(Nc2nccn3c(-c4cn(CC(F)F)nc4C(F)(F)F)cnc23)ccc1C(=O)NCCNC(=O)[C@H]1CC[C@@H](N)C1` [Example 495, N-(2-((1S,3R)-3-aminocyclopentane-1-carboxamido)ethyl)-4-((3-(1-(2,2-difluoroethyl)-3-(trifluoromethyl)-1H-pyrazol-4-yl)imidazo[1,2-a]pyrazin-8-yl)amino)-2-ethylbenzamide formate], the IC90 turned out to be 0.173 µM. Same read-out and setting: under `CCc1cc(Nc2nccn3c(-c4cn(CC(F)F)nc4C(F)(F)F)cnc23)ccc1C(=O)NCC(=O)NCC1CCNCC1` [Example 550, 4-[[3-[1-(2,2-difluoroethyl)-3-(trifluoromethyl)pyrazol-4-yl]imidazo[1,2-a]pyrazin-8-yl]amino]-2-ethyl-N-[2-oxo-2-(4-piperidylmethylamino)ethyl] benzamide formate] stands 0.261 µM; under `Cc1cc(Nc2nccn3c(-c4cn(CC(F)F)nc4C(F)(F)F)cnc23)cc(F)c1C(=O)N1CCN(C(=O)C2CCNCC2)CC1` [Example 707, (4-(4-((3-(1-(2,2-difluoroethyl)-3-(trifluoromethyl)-1H-pyrazol-4-yl)imidazo[1,2-a]pyrazin-8-yl)amino)-2-fluoro-6-methylbenzoyl)piperazin-1-yl)(piperidin-4-yl) methanone], 0.395 µM; under `CCc1cc(Nc2nccn3c(-c4cn(CC(F)F)nc4C(F)F)cnc23)ccc1C(=O)N1CCN(C(=O)CN)CC1` [Example 766, 2-amino-1-(4-(4-((3-(1-(2,2-difluoroethyl)-3-(difluoromethyl)-1H-pyrazol-4-yl)imidazo[1,2-a]pyrazin-8-yl)amino)-2-ethylbenzoyl)piperazin-1-yl)ethan-1-one], 0.903 µM. `CNC(=O)c1ccc(Nc2nccn3c(-c4cn(CC(N)=O)nc4C(F)(F)F)cnc23)cc1Cl` [Example 357, 4-[[3-[1-(2-amino-2-oxoethyl)-3-(trifluoromethyl)pyrazol-4-yl]imidazo[1,2-a]pyrazin-8-yl]amino]-2-chloro-N-methylbenzamide]: the IC90 was found to be 1.59 µM. On the same count and under the same terms, under `Cc1cc(Nc2nccn3c(-c4c[nH]nc4C(F)(F)F)cnc23)cc(F)c1C(=O)N1CCNCC1` [Example 86, [2-fluoro-6-methyl-4-[[3-[3-(trifluoromethyl)-1H-pyrazol-4-yl]imidazo[1,2-a]pyrazin-8-yl]amino]phenyl]-piperazin-1-ylmethanone] stands 3.38 µM. `Cc1cc(Nc2nccn3c(-c4c[nH]nc4C(F)(F)F)cnc23)ccc1C(=O)N1CCN(C(=O)NCC2CNC2)CC1` [Example 410, N-(azetidin-3-ylmethyl)-4-[2-methyl-4-[[3-[3-(trifluoromethyl)-1H-pyrazol-4-yl]imidazo[1,2-a]pyrazin-8-yl]amino]benzoyl]piperazine-1-carboxamide]: the IC90 came out at 1.42 µM. The same measure, in the same setting: under `NCCNC(=O)c1ccc(Nc2nccn3c(-c4c[nH]nc4C(F)(F)F)cnc23)cc1Cl` [Example 363, N-(2-aminoethyl)-2-chloro-4-[[3-[3-(trifluoromethyl)-1H-pyrazol-4-yl]imidazo[1,2-a]pyrazin-8-yl]amino]benzamide] stands 0.738 µM; under `N[C@@H]1CCN(C(=O)CNC(=O)c2ccc(Nc3nccn4c(-c5c[nH]nc5C(F)(F)F)cnc34)cc2Cl)C1` [Example 137, N-[2-[(3R)-3-aminopyrrolidin-1-yl]-2-oxoethyl]-2-chloro-4-[[3-[3-(trifluoromethyl)-1H-pyrazol-4-yl]imidazo[1,2-a]pyrazin-8-yl]amino]benzamide], 1.86 µM.

Source of the values: patent US20230203043A1, “NOVEL IMIDAZOPYRAZINE DERIVATIVES” (Hoffmann-La Roche Inc., priority 2020, published 2023).
